Data: PMC8533089, “Characteristics of Neurokinin-3 Receptor and Its Binding Sites by Mutational Analysis” (Biology, 2021)
Entries after “also recorded” stand apart in the source; their conditions may differ.

How the values were obtained:
[1] = tested on: Tac3R of the striped bass; set-up: method as in PMID 28330973; conditions: cited from earlier work
From the text: (§1) The effect of NKB/NKF peptides on gonadotropin secretion in fish is already well established. The first indication that NKB is widely expressed in fish species and has a stimulatory reproductive effect was shown in zebrafish, goldfish, and tilapia. […] Osetanant re ...

FSH plasma levels = assay: In vivo effect of NKB antagonists on FSH plasma levels (ELISA); set-up: species or system adult male tilapia (Oreochromis niloticus); conditions: antagonist 100 µg/kg BW IP, sGnRHa 10 µg/kg BW after 0.5 h; n = 10
Protocol: (§2) The levels of FSH, LH and GH in the plasma were measured by specific competitive enzyme-linked immunosorbent assay (ELISA), developed for tilapia, based on recombinant gonadotropins or GH that were created by using the yeast Pichia pastoris. For the ELISAs, we used primary antibody antisera against GH [51], FSHβ [52], or against rtLHβ [53], and rtFSHβα [52], rtLHβ [53] or tiGH for the standard curves. Sensitivity for the plasma measurements were 15.84 pg/mL for LH, 0.24 pg/mL for FSH and 30.0 pg/mL for GH. The inter-assay coefficient of variation (CV) was 14.8, 12.5, and 13.0%, while intra-assay CV was 7.2, 8.0, and 8.0% for LH, FSH and GH, respectively.
Adult male tilapia (BW 89.29 ± 32.93 g; gonado-somatic index (GSI) 0.24% ± 0.40%) were injected IP (intraperitoneal) with NKB antagonists, SB-222200 or Osanetant (100 µg/kg BW), and after 0.5 h, a second injection of sGnRHa (10 µg/kg BW) was added. Control groups were injected with sGnRHa ([DAla^6, Pro^9-Net]-mammalian GnRH; Bachem, Budendorf, Switzerland) 10 µg/kg BW) as a positive control. The fish were bled from the caudal blood vessels into heparinized syringes 0, 0.5, 2, 6 and 24 h after injection. This time course is according to standard protocols used previously to test the effect of GnRH on circulating levels of LH, FSH, and GH in tilapia. […]

LH plasma levels = assay: In vivo effect of NKB antagonists on LH plasma levels (ELISA); set-up: species or system adult male tilapia (Oreochromis niloticus)
Protocol: as §2
Adult male tilapia (BW 89.29 ± 32.93 g; gonado-somatic index (GSI) 0.24% ± 0.40%) were injected IP (intraperitoneal) with NKB antagonists, SB-222200 or Osanetant (100 µg/kg BW), and after 0.5 h, a second injection of sGnRHa (10 µg/kg BW) was added. Control groups were injected with sGnRHa ([DAla^6, Pro^9-Net]-mammalian GnRH; Bachem, Budendorf, Switzerland) 10 µg/kg BW) as a positive control. The fish were bled from the caudal blood vessels into heparinized syringes 0, 0.5, 2, 6 and 24 h after injection. This time course is according to standard protocols used previously to test the effect of GnRH on circulating levels of LH, FSH, and GH in tilapia. Blood samples were collected from the caudal vasculature and centrifuged (3200 rpm for 30 min at 4 °C) (Centrifuge: Fresco 17, Rotor: 75003424, Thermo Scientific™, Langenselbold Germany) to obtain plasma samples, which were stored at −20 °C until assayed. Three independent experiments were carried out for the in-vivo studies.

Tac3R = tested on: Tac3R; set-up: method as in PMID 10992004; conditions: cited from earlier work
From the text: as §1

CC[C@H](NC(=O)c1c(C)c(-c2ccccc2)nc2ccccc12)c1ccccc1 [SB-222200]
antagonistic effect on the Tac3R of the striped bass [1]: no antagonistic effect | FSH levels, 2 h post injection, combination with sGnRHa (FSH plasma levels): increased FSH levels | LH plasma levels (LH plasma levels; 100 µg/kg BW IP, 2 h after injection, versus sGnRHa, n = 10): significantly lower | LH levels in plasma, sole IP injection (LH plasma levels; Discussion): decrease in the LH levels in plasma | LH release, combination with sGnRHa (LH plasma levels; antagonist 100 µg/kg BW IP, then sGnRHa 10 µg/kg BW after 0.5 h, n = 10): inhibitory effect on LH release, without any significant change when compared to the sGnRHa; also recorded: drop in LH release | LH plasma levels (abstract) (LH plasma levels; two hours post intraperitoneal injection): decreased LH plasma levels | inhibition of NKB binding to the membranes of CHO cells (Tac3R; CHO cells stably expressing the Tac3R receptor): inhibited NKB binding to the membranes of CHO cells | antagonism of NKB-induced Ca^2+ mobilization (Tac3R; HEK 293 cells): antagonized NKB-induced Ca^2+ mobilization in HEK 293 cells
